Consider 26 compounds from patent US6369059B1, “Tetracyclic derivatives, process of preparation and use” (ICOS Corporation, priority 1994, dated 2002).

The IC50 is the concentration needed to halve the response being measured. Broadly, the EC50 is the concentration giving half of the maximal effect. A word on the melting point: it is the temperature of the solid-liquid transition.

The target of one data set is T1, human recombinant PDE V (Homo sapiens, UniProt O76074).
T1 construct: purchased ICOS, Seattle USA
Briefly: Inhibitory effect on cGMP-PDE (one-step assay adapted from Wells et al.). The data set is classed as biochemical. The note with it: 0.15 μM 8-[H3]-cGMP, 30 minutes incubation, 2% DMSO. The method, then:
The enzyme used was a human recombinant PDE V (ICOS, Seattle USA).
Compounds of the invention were dissolved in DMSO finally present at 2% in the assay.
For `O=C1[C@H]2Cc3c([nH]c4ccccc34)[C@H](c3ccc4c(c3)OCO4)N2C(=O)CN1Cc1ccncc1` (relative stereo) [Example 12, Cis-2,3,6,7,12,12a-Hexahydro-2-(4-pyridylmethyl)-6-(3,4-methylenedioxyphenyl)-pyrazino[2′,1′:6,1]pyrido[3,4-b]indole-1,4-dione], the IC50 was found to be 10 nM.

The subject of another data set is Rat aortic smooth muscle cells (RSMC). Briefly: cGMP level measurements in ANF-stimulated cells. The data set is classed as cell-based. The note with it: 30 minutes at 37° C. with compound, then ANF (100 nM) for 10 minutes, c-GMP by scintillation proximity immunoassay. The procedure:
Rat aortic smooth muscle cells (RSMC) prepared according to Chamley et al. in Cell Tissue Res. 177 503-522 (1977) were used between the 10th and 25th passage at confluence in 24-well culture dishes. Culture media was aspirated and replaced with PBS (0.5 ml) containing the compound tested at the appropriate concentration. After 30 minutes at 37° C., particulates guanylate cyclase was stimulated by addition of ANF (100 nM) for 10 minutes. At the end of incubation, the medium was withdrawn and two extractions were performed by addition of 65% ethanol (0.25 ml). The two ethanolic extracts were pooled and evaporated until dryness, using a Speed-vac system. c-GMP was measured after acetylation by scintillation proximity immunoassay ([…]).
Background: SPA uses beads or plates that emit light when radiolabelled molecules are held near them.
As for `O=C1[C@H]2Cc3c([nH]c4ccccc34)[C@H](c3ccc4c(c3)OCO4)N2C(=O)CN1Cc1ccncc1` (relative stereo) [Example 12, Cis-2,3,6,7,12,12a-Hexahydro-2-(4-pyridylmethyl)-6-(3,4-methylenedioxyphenyl)-pyrazino[2′,1′:6,1]pyrido[3,4-b]indole-1,4-dione], the EC50 turned out to be 150 nM.

System in a further data set: not given
Assay: not given
Conditions: not given
Compound `O=C1[C@H]2Cc3c([nH]c4ccccc34)[C@H](c3ccc4c(c3)OCO4)N2C(=O)CN1Cc1ccncc1` (relative stereo) [Example 12, Cis-2,3,6,7,12,12a-Hexahydro-2-(4-pyridylmethyl)-6-(3,4-methylenedioxyphenyl)-pyrazino[2′,1′:6,1]pyrido[3,4-b]indole-1,4-dione] displayed a melting point of 273 to 274 °C. In the case of `CCCCN1CC(=O)N2[C@@H](c3ccc(C(F)(F)F)cc3)c3[nH]c4ccccc4c3C[C@@H]2C1=O` (relative stereo) [Example 66, Cis-2,3,6,7,12,12a-Hexahydro-2-butyl-6-(4-trifluoromethylphenyl)-pyrazino[2′,1′:6,1]pyrido[3,4-b]indole-1,4-dione], the melting point was 155 °C. Same read-out and setting: next, `CN1CC(=O)N2[C@@H](c3ccc(OC(F)(F)F)cc3)c3[nH]c4ccccc4c3C[C@@H]2C1=O` (relative stereo) [Example 67, Cis-2,3,6,7,12,12a-Hexahydro-2-methyl-6-(4-trifluoromethoxyphenyl)-pyrazino[2′,1′:6,1]pyrido[3,4-b]indole-1,4-dione]: 174 to 180 °C.

For the compound `CN1CC(=O)N2[C@@H](c3ccc(O)cc3)c3[nH]c4ccccc4c3C[C@@H]2C1=O` (relative stereo) [Example 68, Cis-2,3,6,7,12,12a-Hexahydro-2-methyl-6-(4-hydroxyphenyl)-pyrazino[2′,1′:6,1]pyrido[3,4-b]indole-1,4-dione], the melting point fell in the range of 179 to 180 °C. Same read-out and setting: the value for `COc1cc([C@H]2c3[nH]c4ccccc4c3C[C@@H]3C(=O)N(C)CC(=O)N23)ccc1O` (relative stereo) [Example 70, Cis-2,3,6,7,12,12a-Hexahydro-6-(4-hydroxy-3-methoxyphenyl)-2-methyl-pyrazino[2′,1′:6,1]pyrido[3,4-b]indole-1,4-dione] was 264 to 265 °C; that for `CCCCN1CC(=O)N2[C@@H](c3ccc(C#N)cc3)c3[nH]c4ccccc4c3C[C@@H]2C1=O` (relative stereo) [Example 71, Cis-2,3,6,7,12,12a-Hexahydro-2-butyl-6-(4cyanophenyl)-pyrazino[2′,1′:6,1]pyrido[3,4-b]indole-1,4-dione] was 246 °C; that for `CCc1ccc([C@H]2c3[nH]c4ccccc4c3C[C@@H]3C(=O)N(C(C)C)CC(=O)N23)cc1` (relative stereo) [Example 72, Cis-2,3,6,7,12,12a-Hexahydro-6-(4-ethylphenyl)-2-isopropyl-pyrazino[2′,1′:6,1]pyrido[3,4-b]indole-1,4-dione] was 130 °C.

As for `CCc1ccc([C@H]2c3[nH]c4ccccc4c3C[C@@H]3C(=O)N(CC4CC4)CC(=O)N23)cc1` (relative stereo) [Example 73, Cis-2,3,6,7,12,12a-Hexahydro-6-(4-ethylphenyl)-2-cyclopropylmethyl-pyrazino[2′,1′:6,1]pyrido[3,4-b]indole-1,4-dione], the melting point was 160 °C. Still for that read-out and setting: next, `CCCCN1CC(=O)N2[C@@H](c3ccc([N+](=O)[O-])cc3)c3[nH]c4ccccc4c3C[C@@H]2C1=O` (relative stereo) [Example 75, Cis-2,3,6,7,12,12a-Hexahydro-2-butyl-6-(4-nitrophenyl)-pyrazino[2′,1′:6,1]pyrido[3,4-b]indole-1,4-dione]: 182 °C; `CN1CC(=O)N2[C@@H](c3cccnc3)c3[nH]c4ccccc4c3C[C@@H]2C1=O` (relative stereo) [Example 77, Cis-2,3,6,7,12,12a-Hexahydro-2-methyl-6-(3-pyridyl)-pyrazino[2′,1′:6,1]pyrido[3,4-b]indole-1,4-dione]: 312 °C; `Cc1ccc2[nH]c3c(c2c1)C[C@@H]1C(=O)N(C)CC(=O)N1[C@H]3c1ccc2c(c1)OCO2` (relative stereo) [Example 96, Cis-2,3,6,7,12,12a-Hexahydro-2,10-dimethyl-6-(3,4-methylenedioxyphenyl)-pyrazino[2′,1′:6,1]pyrido[3,4-b]indole-1,4-dione]: 275 °C. The same measure, in the same setting: the value for `CCCCN1CC(=O)N2[C@@H](c3ccc(N)cc3)c3[nH]c4ccccc4c3C[C@@H]2C1=O` (relative stereo) [Example 98, Cis-2,3,6,7,12,12a-Hexahydro-6-(4-aminophenyl)-2-butyl-pyrazino[2′,1′:6,1]pyrido[3,4-b]indole-1,4-dione] was 192 °C; that for `CCCCN1CC(=O)N2[C@@H](c3ccc(NC(C)=O)cc3)c3[nH]c4ccccc4c3C[C@@H]2C1=O` (relative stereo) [Example 99, Cis-2,3,6,7,12,12a-Hexahydro-6-(4-acetamidophenyl)-2-butyl-pyrazino[2′,1′:6,1]pyrido[3,4-b]indole-1,4-dione] was 246 °C.

As to `CCc1ccc([C@H]2c3[nH]c4ccccc4c3C[C@@H]3C(=O)N(C)CC(=O)N23)cc1` (relative stereo) [Example 112, Cis-2,3,6,7,12,12a-Hexahydro-6-(4-ethylphenyl)-2-methyl-pyrazino[2′,1′:6,1]pyrido[3,4-b]indole-1,4-dione], the melting point is 254 °C. Same read-out and setting: the value for `CCCCN1CC(=O)N2[C@H](c3ccc4c(c3)OCO4)c3[nH]c4ccccc4c3C[C@@H]2C1=O` [Example 80, (6R,12aR)-2,3,6,7,12,12a-Hexahydro-2-butyl-6(3,4-methylenedioxyphenyl)-pyrazino[2′,1′:6,1]pyrido[3,4-b]indole-1,4-dione] was 209 to 210 °C. On the same count and under the same terms, next, `CC(C)CN1CC(=O)N2[C@H](c3ccc4c(c3)OCO4)c3[nH]c4ccccc4c3C[C@@H]2C1=O` [Example 81, (6R,12aR)-2,3,6,7,12,12a-Hexahydro-2-isobutyl-6-(3,4-methylenedioxyphenyl)-pyrazino[2′,1′:6,1]pyrido[3,4-b]indole-1,4-dione]: 227 to 228 °C; `O=C1[C@H]2Cc3c([nH]c4ccccc34)[C@@H](c3ccc4c(c3)OCO4)N2C(=O)CN1CC1CCCCC1` [Example 83, (6R,12aR)-2,3,6,7,12,12a-Hexahydro-6-(3,4-methylenedioxyphenyl)-2-cyclohexylmethyl-pyrazino[2′,1′:6,1]pyrido[3,4-b]indole-1,4-dione]: 209 °C; `COc1ccc([C@@H]2c3[nH]c4ccccc4c3C[C@@H]3C(=O)N(CC4CC4)CC(=O)N23)cc1Cl` [Example 87, (6R,12aR)-2,3,6,7,12,12a-Hexahydro-6-(3-chloro-4-methoxyphenyl)-2-cyclopropylmethyl-pyrazino[2′,1′:6,1]pyrido[3,4-b]indole-1,4-dione]: 218 to 219 °C. On the same count and under the same terms, next, `COc1ccc([C@@H]2c3[nH]c4ccccc4c3C[C@@H]3C(=O)N(C4CCCC4)CC(=O)N23)cc1Cl` [Example 88, (6R,12aR)-2,3,6,7,12,12a-Hexahydro-2-cyclopentyl6-(3-chloro-4-methoxyphenyl)-pyrazino[2′,1′:6,1]pyrido[3,4-b]indole-1,4-dione]: 260 to 262 °C; `CN1CC(=O)N2[C@H](c3ccc4c(c3)CCC4)c3[nH]c4ccccc4c3C[C@@H]2C1=O` [Example 93, (6R,12aR)-2,3,6,7,12,12a-Hexahydro-6-(5-indanyl)-2-methyl-pyrazino[2′,1′:6,1]pyrido[3,4-b]indole-1,4-dione]: 262 °C. `COc1ccc(CN2CC(=O)N3[C@H](c4ccc5c(c4)OCO5)c4[nH]c5ccccc5c4C[C@@H]3C2=O)cc1OC` [Example 97, (6R,12aR)-2,3,6,7,12,12a-Hexahydro-2-(3,4-dimethoxybenzyl)-6-(3,4-methylenedioxyphenyl)-pyrazino[2′,1′:6,1]pyrido[3,4-b]indole-1,4-dione] displayed a melting point of 224 to 226 °C. The same measure, in the same setting: the value for `C#CCN1CC(=O)N2[C@H](c3ccc4c(c3)OCO4)c3[nH]c4ccccc4c3C[C@@H]2C1=O` [Example 102, (6R,12aR)-2,3,6,7,12,12a-Hexahydro-6-(3,4-methylenedioxyphenyl)-2-(2-propynyl)-pyrazino[2′,1′:6,1]pyrido[3,4-b]indole-1,4-dione] was 271 °C; that for `COc1ccc([C@@H]2c3[nH]c4ccccc4c3C[C@@H]3C(=O)N(C)CC(=O)N23)cc1` [Example 107, (6R,12aR)-2,3,6,7,12,12a-Hexahydro-6-(4-methoxyphenyl)-2-methyl-pyrazino[2′,1′:6,1]pyrido[3,4-b]indole-1,4-dione] was 285 to 288 °C.

Compound `CCN1CC(=O)N2[C@H](c3ccc(OC)cc3)c3[nH]c4ccccc4c3C[C@@H]2C1=O` [Example 108, (6R,12aR)-2,3,6,7,12,12a-Hexahydro-2-ethyl-6-(4-methoxyphenyl)-pyrazino[2′,1′:6,1]pyrido[3,4-b]indole-1,4-dione] displayed a melting point of 277 °C. Turning to `C[C@@H]1C(=O)N2[C@H](c3ccc4c(c3)OCO4)c3[nH]c4ccccc4c3C[C@@H]2C(=O)N1C` [Example 116, (3R,6R,12aR)-2,3,6,7,12,12a-Hexahydro-2,3-dimethyl-6-(3,4-methylenedioxyphenyl)-pyrazino[2′,1′:6,1]pyrido[3,4-b]indole-1,4-dione], the melting point was in the range of 219 to 220 °C. Same read-out and setting: the value for `C[C@H]1C(=O)N2[C@H](c3ccc4c(c3)OCO4)c3[nH]c4ccccc4c3C[C@@H]2C(=O)N1C` [Example 117, (3S,6R,12aR)-2,3,6,7,12,12a-Hexahydro-2,3-dimethyl-6-(3,4-methylenedioxyphenyl)-pyrazino[2′,1′:6,1]pyrido[3,4-b]indole-1,4-dione] was 307 to 309 °C.
